# Assay results published in ChEMBL document CHEMBL5390298, “Nanomolar Benzothiazole-Based Inhibitors of 17β-HSD10 with Cellular Bioactivity” (ACS Med Chem Lett, 2023).
# Legend:
# HEK293 = assay: Cytotoxicity against HEK293 cells assessed as cell damage at 50 uM incubated for 48 hrs by fluorometric method; format: toxicity, cell-based; conditions: human, hek293, 48 h
# [1] = biological target: T1, 3-hydroxyacyl-CoA dehydrogenase type-2 (Homo sapiens, UniProt Q99714); assay: Mixed type inhibition of recombinant 17beta-HSD10 (unknown origin) using E2 as substrate and NAD+ as cofactor preincubated for 5 mins followed by substrate addition and measured after 20 mins by fluorometric assay
# T1 sequence (Q99714 whole entry): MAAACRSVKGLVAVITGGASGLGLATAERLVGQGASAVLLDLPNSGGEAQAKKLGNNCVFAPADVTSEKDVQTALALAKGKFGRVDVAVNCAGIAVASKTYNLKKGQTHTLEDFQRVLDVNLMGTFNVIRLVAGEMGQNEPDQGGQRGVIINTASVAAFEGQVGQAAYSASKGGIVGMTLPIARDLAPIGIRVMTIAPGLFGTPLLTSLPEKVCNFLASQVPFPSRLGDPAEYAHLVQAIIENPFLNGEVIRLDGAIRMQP
# [2] = biological target: T1, 3-hydroxyacyl-CoA dehydrogenase type-2; assay: Inhibition of recombinant 17beta-HSD10 (unknown origin) using ALLOP as substrate and NAD+ as cofactor preincubated for 5 mins followed by substrate addition and measured after 20 mins by fluorometric assay
# [3] = biological target: T1, 3-hydroxyacyl-CoA dehydrogenase type-2; assay: Inhibition of recombinant 17beta-HSD10 (unknown origin) using E2 as substrate and NAD+ as cofactor preincubated for 5 mins followed by substrate addition and measured after 20 mins by fluorometric assay
Structure (SMILES),Activity (HEK293),further results
CC(=O)Nc1ccc2nc(N(CCc3ccc(O)c(Cl)c3)C(C)=O)sc2c1,Non-Toxic,–
O=C(Nc1ccc(O)c(C(F)(F)F)c1)Nc1nc2ccc(C(=O)O)cc2s1,Non-Toxic,IC50 [1]: 340 nM; IC50 [2]: 250 nM
O=C(Nc1ccc(O)c(Cl)c1)Nc1nc2ccc(C(=O)O)cc2s1,–,IC50 [3]: 1810 nM
CS(=O)(=O)Nc1ccc2nc(NC(=O)Nc3ccc(O)c(Cl)c3)sc2c1,Non-Toxic,–
O=C(Nc1ccc(O)c(Cl)c1)Nc1nc2cc(C(=O)O)ccc2s1,Non-Toxic,–
O=C(O)c1ccc2nc(NC(=O)c3ccc(O)c(Cl)c3)sc2c1,Non-Toxic,–
CC(=O)Nc1ccc2nc(NC(=O)Nc3ccc(O)c(Cl)c3)sc2c1,–,IC50 [3]: 1150 nM
O=C(O)c1ccc2nc(NCCc3ccc(O)c(Cl)c3)sc2c1,Non-Toxic,–
O=C(O)c1ccc2nc(NCc3ccc(O)c(Cl)c3)sc2c1,Non-Toxic,–
CC(=O)Nc1ccc2nc(NCc3ccc(O)c(C(F)(F)F)c3)sc2c1,Non-Toxic,–
NS(=O)(=O)c1ccc2nc(NC(=O)Nc3ccc(O)c(Cl)c3)sc2c1,Non-Toxic,–
NC(=O)Nc1ccc2nc(NC(=O)Nc3ccc(O)c(Cl)c3)sc2c1,Non-Toxic,IC50 [1]: 270 nM; IC50 [2]: 330 nM
O=C(Nc1ccc(O)c(Cl)c1)Nc1nc2ccc(-c3nnn[nH]3)cc2s1,Non-Toxic,IC50 [1]: 410 nM; IC50 [2]: 95 nM
CC(=O)Nc1ccc2nc(NCCc3ccc(O)c(Cl)c3)sc2c1,Non-Toxic,–
CC(=O)Nc1ccc2nc(NC(=O)Nc3ccc(O)c(C(F)(F)F)c3)sc2c1,Non-Toxic,–
CC(=O)Nc1ccc2nc(NCc3ccc(O)c(Cl)c3)sc2c1,Non-Toxic,–
